Data from patent US11285170B2, “Fractionated antimicrobial compositions and use thereof” (priority 2017, dated 2022).
Values after ≈ are worked out from the molar mass of the structure shown. Like-named read-outs stand apart in the source and are kept apart here.

How the values were obtained:
[1] = system: Vancomycin resistant S. aureus (VRSA); assay: MIC by broth macrodilution against S. aureus isolates; assay type: cell-based; details: Staphylococcus aureus
Description: In this example, the efficacy of the inventive preparations was tested against Vancomycin resistant S. aureus (VRSA)
The MICs were determined using a broth macrodilution method with cation-adjusted Mueller-Hinton broth II (Becton Dickinson) at standard inoculum (10^5 cfu/mL) following the CLSI recommendations. The cultures used in this study were bacterial clinical isolates from human infections.

[2] = system: MSSA strain ATCC 29213; assay: MIC by broth macrodilution against S. aureus isolates, MSSA strain; assay type: cell-based; details: Staphylococcus aureus, read-out: MSSA strain MIC
From the text: The cultures used in this study were bacterial clinical isolates from human infections.

[3] = system: A. fumigatus; assay: MIC by broth macrodilution, Example 22; assay type: cell-based, Aspergillus fumigatus; details: CLSI
Description: (§1) The potency of Example Nos. 1, 5 and 10 were examined against bacterial isolates from patients with cystic fibrosis. The MICs values were determined by the broth macrodilution method according to the CLSI guideline. For the in vivo studies, 8-week-old C57BL/6 mice were intranasally infected with P. aeruginosa MR-6 (2×10^7 cfu/mouse)+A. fimigatus (6×10^6 cfu/mouse).

[4] = system: P. aeruginosa; assay: MIC by broth macrodilution, isolates from patients with cystic fibrosis, Example 22; assay type: cell-based; details: Pseudomonas aeruginosa, CLSI, read-out: MIC against P. aeruginosa
Description: as §1

[5] = system: A. fumigatus; assay: Animal model of respiratory infection, mortality; assay type: in vivo, C57BL/6 mice; details: mice, intranasal infection; treatment 12 h after infection by intranasal inhalation at 32×MIC
Description: (§2) In this example the efficacy of the preparations were tested against an animal model of mixed respiratory infection.
as §1

[6] = system: P. aeruginosa; assay: Animal model of respiratory infection, mortality; assay type: in vivo, C57BL/6 mice; details: mice, intranasal infection; treatment 12 h after infection by intranasal inhalation at 32×MIC
Description: as §2, §1

[7] = system: P. aeruginosa + A. fumigatus; assay: Animal model of mixed respiratory infection, mortality; assay type: in vivo, C57BL/6 mice; details: mice, intranasal infection; treatment 12 h after infection by intranasal inhalation at 32×MIC
Description: as §2, §1

[8] = system: Pseudomonas aeruginosa AGR 18 and MR23 multiresistant; assay: MIC against multi-drug resistant P. aeruginosa; assay type: cell-based
Description: (§3) In this example, the efficacy of Examples 1, 10 and 13 were tested against multi-drug resistant microorganisms.
(§4) Bacterial strains tested: Pseudomonas aeruginosa AGR 18 and MR23 multiresistant. Fungal strain: Candida glabrata CG15, VT18 resistant to Amphotericin B and Voriconazole Microbiological efficacy was determined as the Minimal Inhibitory Concentration.
The bactericidal activities of Examples 1, 10 and 13 against multiresistant P. aeruginosa isolates are shown below in Table 17.

[9] = system: Candida glabrata CG15, VT18; assay: MIC against multiresistant C. glabrata; assay type: cell-based
Description: as §3, §4
The bactericidal activities of Examples 1, 10 and 13 against multiresistant C. glabrata isolates are shown below in Table 18.

[10] = system: Ehrlich solid tumor; assay: Ehrlich solid tumor, combined effect with anticancer drugs; assay type: in vivo; details: combination study, 0.2 ml of 0.01% solution intraperitoneally
Description: In this experiment, a model of continuous Ehrlich solid tumor was used to study combined effect of claimed product with anticancer drugs. The drugs were administered simultaneously with the tumor transplantation (0.2 ml of 0.01% solution) intraperitoneally. The control animals received water (used as solvent for the drugs tested).

[11] = VT-A-199, read-out: VRSA strain MIC
[12] = VT-V-18, read-out: VRSA strain MIC
[13] = VT-V-25, read-out: VRSA strain MIC

## CCC[C@@H]1C[C@@H](C(=O)N[C@@H]([C@H]2O[C@H](SC)[C@H](O)[C@@H](O)[C@H]2O)[C@H](C)Cl)N(C)C1 [Clindamycin]
[1]; [11]
  MIC: 2 mg/L (≈ 4.71 µM)
[1]; [12]
  MIC: 4 mg/L (≈ 9.41 µM)
[1]; [13]
  MIC: 2 mg/L (≈ 4.71 µM)
[2]; ATCC 29213
  MIC: 0.125 mg/L (≈ 0.294 µM)

## NC[C@H]1O[C@H](O[C@H]2[C@H](O)[C@@H](O[C@H]3O[C@H](CO)[C@@H](O)[C@H](N)[C@H]3O)[C@H](N)C[C@@H]2N)[C@H](N)C[C@@H]1O [Tobramycin, tobramycin]
[3]
  MIC against A. fumigatus: not active
[4]
  MIC: 16 to 32 mg/L (≈ 34.2 to 68.4 µM)
[5]
  Percent mortality 96 h post infection, A. fumigatus: 40%
[6]
  Percent mortality 96 h post infection, P. aeruginosa: 20%
[7]
  Percent mortality 96 h post infection, P. aeruginosa + A. fumigatus: 50%
[8]; P. aeruginosa strain AGR 18
  MIC: 32 mg/L (≈ 68.4 µM)
[8]; P. aeruginosa strain MR23
  MIC: 32 mg/L (≈ 68.4 µM)

## C[C@@H]1[C@H](O)[C@@H](C)/C=C/C=C/C=C/C=C/C=C/C=C/C=C/[C@H](O[C@@H]2O[C@H](C)[C@@H](O)[C@H](N)[C@@H]2O)C[C@@H]2O[C@](O)(C[C@@H](O)C[C@@H](O)[C@H](O)CC[C@@H](O)C[C@@H](O)CC(=O)O[C@H]1C)C[C@H](O)[C@H]2C(=O)O [AMB]
[9]; C. glabrata CG1514053
  Minimal inhibitory concentration: 4 mg/L (≈ 4.33 µM)
[9]; C. glabrata VT18
  Minimal inhibitory concentration: 8 mg/L (≈ 8.66 µM)

## NCC[C@H](O)C(=O)N[C@@H]1C[C@H](N)[C@@H](O[C@H]2O[C@H](CN)[C@@H](O)[C@H](O)[C@H]2O)[C@H](O)[C@H]1O[C@H]1O[C@H](CO)[C@@H](O)[C@H](N)[C@H]1O [Amikacin]
[8]; P. aeruginosa strain AGR 18
  MIC: 128 mg/L (≈ 219 µM)
[8]; P. aeruginosa strain MR23
  MIC: 256 mg/L (≈ 437 µM)

## CCN1CCN(C(=O)N[C@@H](C(=O)N[C@@H]2C(=O)N3[C@@H]2SC(C)(C)[C@@H]3C(=O)O)c2ccccc2)C(=O)C1=O [Piperacillin]
[8]; P. aeruginosa strain AGR 18
  MIC: > 256 mg/L
[8]; P. aeruginosa strain MR23
  MIC: 256 mg/L (≈ 495 µM)

## C[C@@H](O)[C@H]1C(=O)N2C(C(=O)O)=C(S[C@@H]3CN[C@H](C(=O)N(C)C)C3)[C@H](C)[C@H]12 [Meropenem]
[1]; [11]
  MIC: 128 mg/L (≈ 334 µM)
[1]; [12]
  MIC: 32 mg/L (≈ 83.4 µM)
[1]; [13]
  MIC: 128 mg/L (≈ 334 µM)
[2]; ATCC 29213
  MIC: 0.125 mg/L (≈ 0.326 µM)

## CC(C)(O/N=C(\C(=O)N[C@@H]1C(=O)N2C(C(=O)[O-])=C(C[n+]3ccccc3)CS[C@H]12)c1csc(N)n1)C(=O)O [Ceftazidime]
[8]; P. aeruginosa strain AGR 18
  MIC: 32 mg/L (≈ 58.5 µM)
[8]; P. aeruginosa strain MR23
  MIC: 32 mg/L (≈ 58.5 µM)

## N.N.[Cl][Pt][Cl] [Cisplatin]
[10]; 7 days
  Tumor size, 7 days after transplantation: 72.4 mm^3
[10]; 11 days
  Tumor size, 11 days after transplantation: 180.7 mm^3
[10]; 14 days
  Tumor size, 14 days after transplantation: 243.3 mm^3
[10]; 18 days
  Tumor size, 18 days after transplantation: 345.8 mm^3
[10]; 22 days
  Tumor size, 22 days after transplantation: 548.2 mm^3
[10]; 25 days
  Tumor size, 25 days after transplantation: 607.7 mm^3

## CC1(C)S[C@@H]2[C@H](NC(=O)[C@H](N)c3ccccc3)C(=O)N2[C@H]1C(=O)O [Ampicillin]
[1]; [11]
  MIC: 16 mg/L (≈ 45.8 µM)
[1]; [12]
  MIC: 64 mg/L (≈ 183 µM)
[1]; [13]
  MIC: 32 mg/L (≈ 91.6 µM)
[2]; ATCC 29213
  MIC: 0.25 mg/L (≈ 0.715 µM)

## C[C@H]1[C@H](NC(=O)/C(=N\OC(C)(C)C(=O)O)c2csc(N)n2)C(=O)N1S(=O)(=O)O [Aztreonam, aztreonam]
[3]
  MIC against A. fumigatus: not active
[4]
  MIC: 64 mg/L (≈ 147 µM)
[5]
  Percent mortality 96 h post infection, A. fumigatus: 30%
[6]
  Percent mortality 96 h post infection, P. aeruginosa: 20%
[7]
  Percent mortality 96 h post infection, P. aeruginosa + A. fumigatus: 60%
[8]; P. aeruginosa strain AGR 18
  MIC: 32 mg/L (≈ 73.5 µM)
[8]; P. aeruginosa strain MR23
  MIC: 128 mg/L (≈ 294 µM)

## CN[C@H](CC(C)C)C(=O)N[C@H]1C(=O)N[C@@H](CC(N)=O)C(=O)N[C@H]2C(=O)N[C@H]3C(=O)N[C@H](C(=O)N[C@H](C(=O)O)c4cc(O)cc(O)c4-c4cc3ccc4O)[C@H](O)c3ccc(c(Cl)c3)Oc3cc2cc(c3O[C@@H]2O[C@H](CO)[C@@H](O)[C@H](O)[C@H]2O[C@H]2C[C@](C)(N)[C@H](O)[C@H](C)O2)Oc2ccc(cc2Cl)[C@H]1O [Vancomycin]
[1]; read-out: VRSA strain MIC, VT-A-199
  MIC: 16 mg/L (≈ 11 µM)
[1]; read-out: VRSA strain MIC, VT-V-18
  MIC: 16 mg/L (≈ 11 µM)
[1]; read-out: VRSA strain MIC, VT-V-25
  MIC: 1 mg/L (≈ 0.69 µM)
[2]
  MIC: 0.5 mg/L (≈ 0.345 µM)

## C[C@@H](c1ncncc1F)[C@](O)(Cn1cncn1)c1ccc(F)cc1F [VRZ]
[9]; C. glabrata CG1514053
  Minimal inhibitory concentration: 8 mg/L (≈ 22.9 µM)
[9]; C. glabrata VT18
  Minimal inhibitory concentration: 4 mg/L (≈ 11.5 µM)
